# Biological target: T1, Aurora A (Homo sapiens, UniProt O14965)
# T1 construct: cell lysates from Jurkat cells (ATCC TIB-152) used; endogenous in cells; host or cells: Jurkat cells (ATCC TIB-152), treated with pervanadate
# T1 sequence (O14965 1-403): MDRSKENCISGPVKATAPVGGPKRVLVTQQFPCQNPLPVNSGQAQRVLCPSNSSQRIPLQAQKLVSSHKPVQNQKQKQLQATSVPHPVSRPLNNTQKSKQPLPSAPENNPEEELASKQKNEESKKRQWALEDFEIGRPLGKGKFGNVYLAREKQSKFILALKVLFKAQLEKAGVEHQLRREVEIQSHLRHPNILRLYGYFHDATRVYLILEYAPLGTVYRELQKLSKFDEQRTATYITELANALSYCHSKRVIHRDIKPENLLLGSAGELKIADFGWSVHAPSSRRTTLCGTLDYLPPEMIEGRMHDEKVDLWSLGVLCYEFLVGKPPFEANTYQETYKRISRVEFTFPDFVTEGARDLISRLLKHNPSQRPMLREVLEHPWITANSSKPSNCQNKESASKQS
# Test: Kinobeads assay, Aurora A
# Format: binding
# Conditions: for IC50: lysate of pervanadate-treated Jurkat cells, read-out: Inhibition values (IC50) Aur A
SMILES,JAK3/AurA Fold Selectivity,IC50 [nM]
"O=C1COCCN1c1cc(F)cc(Cn2ncc3cnc(Nc4cn[nH]c4)nc32)c1 [Example 84, 4-(3-((6-((1H-Pyrazol-4-yl)amino)-1H-pyrazolo[3,4-d]pyrimidin-1-yl)methyl)-5-fluorophenyl)morpholin-3-one]",>50 Fold,100 to 1000
"O=C(c1cccc(Cn2ncc3cnc(Nc4cnn(CCO)c4)nc32)c1F)N1CCOCC1 [Example 85, (2-Fluoro-3-((6-((1-(2-hydroxyethyl)-1H-pyrazol-4-yl)amino)-1H-pyrazolo[3,4-d]pyrimidin-1-yl)methyl)phenyl)(morpholino)methanone]",>50 Fold,100 to 1000
"Cn1cc(Nc2ncc3cnn(Cc4cc(N5CCNCC5)cc(F)c4F)c3n2)cn1 [Example 86, 1-(2,3-Difluoro-5-(piperazin-1-yl)benzyl)-N-(1-methyl-1H-pyrazol-4-yl)-1H-pyrazolo[3,4-d]pyrimidin-6-amine]",>50 Fold,1000 to 10000
"Cn1cc(Nc2ncc3cnn(Cc4cccc(C(=O)N5CCOCC5)c4F)c3n2)cn1 [Example 87, (2-Fluoro-3-((6-((1-methyl-1H-pyrazol-4-yl)amino)-1H-pyrazolo[3,4-d]pyrimidin-1-yl)methyl)phenyl)(morpholino)methanone]",>50 Fold,1000 to 10000
"Cn1cc(Nc2ncc3cnn(Cc4cccc(N5CCOCC5O)c4)c3n2)cn1 (stereo not shown) [Example 88, 4-(3-((6-((1-Methyl-1H-pyrazol-4-yl)amino)-1H-pyrazolo[3,4-d]pyrimidin-1-yl)methyl)phenyl)morpholin-3-ol]",10-50 Fold,1000 to 10000
